# Columns and labels:
# in vivo = details: rat, ip; for selectivity ratio: Therapeutic range
# Experimental: (§1) The acute toxicity is determined on groups of 10 rats of the same strain as above, again for intraperitoneal administration.
# (§2) The comparison substance used is the well known hypnotic Ethinamate (1-ethynyl-cyclohexyl carbamate).
# rats [1] = experiment: Hypnotic action on intraperitoneal administration (period of absence of the righting reflex, duration of sleep); assay type: in vivo, female Sprague-Dawley rats; details: for ED (60 min sleep): Rattus norvegicus, 1 h, dose which causes a 60 minute period of sleep, regression analysis
# Experimental: To investigate the hypnotic action, these substances are administered intraperitoneally to groups of 4-8 female Sprague-Dawley rats each weighing 145-200 g. The period of absence of the righting reflex (ie. the duration of sleep) served as a criterion of the hypnotic action.
# Linear relationships exist between the logarithms of the administered doses (mg/kg) and the logarithms of the period of sleep (min), from which relationships the dose which causes a 60 minute period of sleep is calculated, as the ED 60 min, by regression analysis.
# [2] = German Laid-Open Application DOS No. 2,346,305; cited from earlier work
# rats [3] = experiment: in vivo; details: rat, ip, 681 mg/kg
# Experimental: as §1, §2
Structure (SMILES),LD50 at 6 h (in vivo),selectivity ratio (in vivo),"ED (60 min sleep) (rats [1]; ip, intraperitoneal, rats)","R.A. (relative activity) (rats [1]; rat, in vivo, ip)","Analgesic properties (in words), prior art [2]",Mortality rate (rats [3]),"R.A. (relative activity) (rats [1]; Ethinamate = 1.00, intraperitoneal, rats)"
"CC(=O)[C@]1(COC(=O)NC2CC2)C[C@@H]2C=C[C@H]1C2 (relative stereo) [Example 109, exo-2-(N-cyclopropylcarbamyloxymethyl)-norborn-5-en-2-yl methyl ketone]",187 mg/kg,6.9,27.2 mg/kg,2.55,–,–,–
"CC(=O)[C@]1(COC(=O)NC(C)C)C[C@@H]2C=C[C@H]1C2 (relative stereo) [Example 7, exo-2-(N-isopropylcarbamyloxymethyl)-norborn-5-en-2-yl methyl ketone]",137 mg/kg,6.6,20.7 mg/kg,3.35,–,–,–
"CCCNC(=O)OCC1(C(C)=O)CC=CCC1 (stereo not shown) [Example 52, 1-(N-propylcarbamyloxymethyl)-cyclohex-3-enyl methyl ketone]",215 mg/kg,7.5,28.5 mg/kg,2.43,–,–,–
"CNC(=O)OC1OC(=O)C2C3C=CC(C3)C12 (stereo not shown) [4-oxa-5-(5-methylcarbamyloxy)-tricyclo[5,2,1,0^2,6]-dec-8-en-3-one]",–,–,–,–,exhibit analgesic properties,–,–
"CC(=O)[C@]1(COC(=O)NC(C)C2CC2)C[C@@H]2C=C[C@H]1C2 (stereo partly drawn) [Example 98, exo-2-[N-(1-cyclopropylethyl)-carbamyloxymethyl]-norborn-5-en-2-yl methyl ketone]",≥ 681 mg/kg,≥ 22.5,30.3 mg/kg,2.29,–,0/10,–
"CCC(C)NC(=O)OC[C@@]1(C(C)=O)C[C@@H]2C=C[C@H]1C2 (stereo partly drawn) [Example 88, exo-2-(N-but-2-yl-carbamyloxymethyl)-norborn-5-en-2-yl methyl ketone]",150 mg/kg,4.9,30.8 mg/kg,2.25,–,–,–
"CC(=O)[C@]1(COC(=O)NC(C)C)C[C@@H]2CC[C@H]1C2 (relative stereo) [Example 36, exo-2-(N-isopropylcarbamyloxymethyl)-norborn-2-yl methyl ketone]",464 mg/kg,12.3,37.6 mg/kg,1.84,–,–,–
"CCCNC(=O)OC[C@@]1(C(C)=O)C[C@@H]2C=C[C@H]1C2 (relative stereo) [Example 4, exo-2-(N-n-propylcarbamyloxymethyl)-norborn-5-en-2-yl methyl ketone]",392 mg/kg,18.2,21.5 mg/kg,3.22,–,–,–
"CC(=O)[C@]1(COC(=O)NCC(C)C)C[C@@H]2C=C[C@H]1C2 (relative stereo) [Example 87, exo-2-(N-(2-methylpropyl)-carbamyloxymethyl)-norborn-5-en-2-yl methyl ketone]",482 mg/kg,10.3,46.7 mg/kg,1.48,–,–,–
"C#CC1(OC(N)=O)CCCCC1 [Ethinamate, 1-ethynyl-cyclohexyl carbamate, reference compound]",–,–,69.3 mg/kg,–,–,–,1.00
"CC(=O)[C@]1(COC(=O)NC2CCCC2)C[C@@H]2C=C[C@H]1C2 (relative stereo) [Example 15, exo-2-(N-cyclopentylcarbamyloxymethyl)-norborn-5-en-2-yl methyl ketone]",247 mg/kg,5.3,46.4 mg/kg,1.49,–,–,–

# Reference: patent US4335138A, “Novel carbamates, their preparation, and pharmaceutical formulations containing these compounds” (BASF Aktiengesellschaft, priority 1979, dated 1982)
